Source: patent US20240166612A1, “ARYLTHIOETHER ACETAMIDE AND RELATED COMPOUNDS AND THEIR USE IN TREATING MEDICAL CONDITIONS” (X-Biotix Therapeutics, Inc., priority 2021, published 2024)
In brackets after ≈: the same amount, converted by molar mass.

How the values were obtained:
[1] = system: Wild-type P. aeruginosa PAO1; test: Broth microdilution MIC, wild-type P. aeruginosa PAO1; assay type: cell-based; conditions: Pseudomonas aeruginosa; wild-type P. aeruginosa PAO1, 37° C., 18 h; read-out: PAO1 WT MIC
Procedure: (§1) Exemplary compounds from the above Examples were tested to determine their minimum inhibitory concentration (MIC) for exemplary strains of Escherichia and Pseudomonas bacteria using broth microdilution methods. Assay procedures and results are described below.
(§2) Broth microdilution assays were conducted according to Clinical and Laboratory Standards Institute guidelines (CLSI, M07-A^11: Clinical and Laboratory Standards Institute. Methods for Dilution Antimicrobial Susceptibility Tests for Bacteria that Grow Aerobically; Approved Standard-11th Edition. Wayne, PA: CLSI, 2018). Briefly, bacterial suspensions were adjusted to a density equivalent to a 0.5 McFarland standard and diluted in sterile, cation-adjusted Mueller-Hinton broth (Beckton Dickinson) to yield a final inoculum between 2×10^5 and 8×10^5 colony-forming units (CFU)/mL. An inoculum volume of 98 μL was added to wells containing 2 μL of 2-fold serial dilutions of drug (prepared in DMSO). All inoculated microdilution trays were incubated in ambient air at 37° C. for 18 h. […] Performance of the assay was monitored by the use of laboratory quality-control strains (S. aureus ATCC 29213 and P. aeruginosa ATCC 27853) and levofloxacin, a compound with a defined MIC spectrum, in accordance with CLSI guidelines (CLSI, M100Ed29: Clinical and Laboratory Standards Institute. Performance Standards for Antimicrobial Susceptibility Testing, 29th Edition. Wayne, PA: CLSI, 2018).
(§3) Multiple enterobacteriaceae strains were tested, including both wild-type strains and multi-drug resistance pump deficient mutants. Specific strains tested included the following: • Wild-type P. aeruginosa PAO1, • P. aeruginosa PAO1 ΔmexABoprM—Disabled multi-drug efflux system Δ(MexAB-OprM), • P. aeruginosa PAO397—PAO1Δ(mexAB-oprM) Δ(mexCD-oprJ) Δ(mexEF-oprN) Δ(mexJK) Δ(mexXY) ΔopmH, • P. aeruginosa LESB58—Clinical isolate; colistin-resistant, isolated in the United Kingdom in 1988 from a patient with cystic fibrosis • E. coli JW0452-3 (BW25113 JacrA::kan)—Disabled multi-drug efflux system (AcrAB-TolC).
(§4) Experimental results are provided in Table 11, which provides MIC values for wild-type P. aeruginosa PAO1 (“PAO1 WT MIC”), P. aeruginosa PAO ΔmexABoprM (“PAO1 KO MIC”), P. aeruginosa PAO397 (“PAO397 KO MIC”), P. aeruginosa LESB58 (“LESB58”), and E. coli JW0452-3 (BW25113 JacrA::kan) (“E. coli KO MIC”).

[2] = system: P. aeruginosa PAO1 ΔmexABoprM; test: Broth microdilution MIC, P. aeruginosa PAO1 ΔmexABoprM; assay type: cell-based; conditions: Pseudomonas aeruginosa, PAO1, 18 h, read-out: PAO1 KO MIC
Procedure: as §1, §2, §3, §4

[3] = system: P. aeruginosa PAO397; test: Broth microdilution MIC, P. aeruginosa PAO397; assay type: cell-based; conditions: Pseudomonas aeruginosa, PAO397, 18 h, read-out: PAO397 KO MIC
Procedure: as §1, §2, §3, §4

[4] = system: P. aeruginosa LESB58; test: Broth microdilution MIC, P. aeruginosa LESB58; assay type: cell-based; conditions: Pseudomonas aeruginosa; P. aeruginosa LESB58 clinical isolate, colistin-resistant, 37° C., 18 h
Procedure: as §1, §2, §3, §4

[5] = molecular target: T1, recombinant LpxA enzyme (P. aeruginosa) (Pseudomonas aeruginosa, UniProt Q9X6P4); test: LpxA in vitro substrate acylation assay with RapidFire MS analysis (P. aeruginosa); assay type: biochemical; conditions: P. aeruginosa enzyme 0.5 nM, PaACP-C10, 30 min
T1 sequence (Q9X6P4 1-258): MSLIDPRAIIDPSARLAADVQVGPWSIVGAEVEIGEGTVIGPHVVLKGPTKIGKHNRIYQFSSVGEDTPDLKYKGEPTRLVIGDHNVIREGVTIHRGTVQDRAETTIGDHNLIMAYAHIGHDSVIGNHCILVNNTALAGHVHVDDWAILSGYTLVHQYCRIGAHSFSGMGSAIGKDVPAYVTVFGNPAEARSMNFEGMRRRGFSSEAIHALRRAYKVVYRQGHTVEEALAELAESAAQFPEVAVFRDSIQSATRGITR
Procedure: Exemplary compounds from the above Examples were tested for ability to inhibit LpxA activity using an in vitro substrate acylation assay with RapidFire™ MS analysis. Assay procedures and results are described below.
Reactions were carried out in a final volume of 30 μL with 25 mM HEPES (pH 7.3), 150 mM NaCl, 2 mM DTT, 0.01% BSA, 5 μM UDP-GlcNac, recombinant LpxA enzyme (0.5 nM P. aeruginosa or 1.0 nM E. coli, both produced at Evotec), 0.5 μM acyl-transfer reagent (decanoyl P. aeruginosa acyl-carrier protein [PaACP-C10] or myristoyl E. coli acyl-carrier protein [EcACP-C1-4], both produced at Evotec), and 1% DMSO containing test compound. After 30 min incubation at room temperature, reactions were stopped by addition of 30 μL of 10% TCA in water.
Samples were centrifuged (4350 rpm, 4° C., 5 min), and then subjected to RapidFire™ MS analysis on an Agilent RapidFire 300 coupled to an Agilent 6460 triple-quadrupole mass spectrometer. Analytes were retained on a C4 (type A) cartridge using the following solvents and flow rates: • Pump 1—H2O with 5 mM NH4OAc at 2.0 mL/min, • Pump 2—MeOH/H2O (90/10) at 1.5 mL/min, • Pump 3—MeOH/H2O (90/10) at 0.5 mL/min, and • Pump 4—ACN (organic)/H2O (aqueous). Substrate and product of the reaction were detected in negative mode ESI-MS/MS by MRM (multiple reaction monitoring) of transitions 606.0/385.0 (UDP-GlcNAc substrate) and 776.2/385.0 (UDP-3-O—(R-3-hydroxydecanoyl)-GlcNAc product, for P. aeruginosa LpxA assay) or 832.2/385.0 (UDP-3-O—(R-3-hydroxymyristoyl)-GlcNAc product, for E. coli LpxA assay).
For IC50 determinations, peak areas of the substrate and product were compared to compute the proportion of product formed by the LpxA enzyme at each compound concentration.

Structure (SMILES) | MIC [1] | MIC [2] | MIC [3] | MIC [4] | IC50 [5]
CCc1ccccc1SCC(=O)N(Cc1ccc(C#N)cc1)Cc1nnc(N)o1 [Compound No. 10] | > 64 mg/L | 1 to 16 mg/L (≈ 2.45 to 39.3 µM) | < 1 mg/L | – | –
N#Cc1ccc(CN(Cc2nnc(N)o2)C(=O)COc2cc(F)cc(F)c2Cl)cn1 [Compound No. 18, N-((5-amino-1,3,4-oxadiazol-2-yl)methyl)-2-(2-chloro-3,5-difluorophenoxy)-N-((6-cyanopyridin-3-yl)methyl)acetamide] | > 64 mg/L | 1 to 16 mg/L (≈ 2.3 to 36.8 µM) | 1 to 16 mg/L (≈ 2.3 to 36.8 µM) | > 64 mg/L | –
Cc1nnc(CN(Cc2ccc(C#N)cc2)C(=O)CSc2ccccc2Cl)o1 [Compound No. 65, 2-(2-Chlorophenyl)sulfanyl-N-[(4-cyanophenyl)methyl]-N-[(5-methyl-1,3,4-oxadiazol-2-yl)methyl]acetamide] | > 64 mg/L | > 64 mg/L | 1 to 16 mg/L (≈ 2.42 to 38.8 µM) | – | –
N#Cc1ccc(CN(Cc2nnc(O)o2)C(=O)CSc2ccccc2Cl)cc1 [Compound No. 66, 2-(2-Chlorophenyl)sulfanyl-N-[(4-cyanophenyl)methyl]-N-[(5-hydroxy-1,3,4-oxadiazol-2-yl)methyl]acetamide] | > 64 mg/L | 1 to 16 mg/L (≈ 2.41 to 38.6 µM) | < 1 mg/L | – | –
N#Cc1ccc(CN(Cc2nnc(CN)o2)C(=O)CSc2ccccc2Cl)cc1 [Compound No. 67, N-[[5-(Aminomethyl)-1,3,4-oxadiazol-2-yl]methyl]-2-(2-chlorophenyl)sulfanyl-N-[(4-cyanophenyl)methyl]acetamide] | > 64 mg/L | 16 to 64 mg/L (≈ 37.4 to 150 µM) | 1 to 16 mg/L (≈ 2.34 to 37.4 µM) | – | –
N#Cc1ccc(CN(Cc2nnc(N)s2)C(=O)CSc2ccccc2Cl)cc1 [Compound No. 69, N-[(5-Amino-1,3,4-thiadiazol-2-yl)methyl]-2-(2-chlorophenyl)sulfanyl-N-[(4-cyanophenyl)methyl]acetamide] | > 64 mg/L | 1 to 16 mg/L (≈ 2.33 to 37.2 µM) | 1 to 16 mg/L (≈ 2.33 to 37.2 µM) | – | –
N#Cc1ccc(CN(Cc2nnc(N)o2)C(=O)CSc2ncccc2Cl)cn1 [compound 12] | > 64 mg/L | 1 to 16 mg/L (≈ 2.4 to 38.5 µM) | < 1 mg/L | – | –
Nc1nnc(CN(Cc2ccc(=O)[nH]c2)C(=O)CSc2ccccc2Cl)o1 [compound 29] | > 64 mg/L | > 64 mg/L | 1 to 16 mg/L (≈ 2.46 to 39.4 µM) | – | –
CCc1ccccc1OCC(=O)N(Cc1ccc(C#N)cc1)Cc1nnc(N)o1 [compound 32] | > 64 mg/L | 1 to 16 mg/L (≈ 2.55 to 40.9 µM) | < 1 mg/L | – | –
N#Cc1ccc(CN(Cc2nnc(N)o2)C(=O)COc2cccc(Cl)c2Cl)c(F)c1 [compound 34] | > 64 mg/L | 16 to 64 mg/L (≈ 35.5 to 142 µM) | < 1 mg/L | – | –
N#Cc1ccc(CN(Cc2c[nH]cn2)C(=O)CSc2ccccc2Cl)cc1 [compound 43] | > 64 mg/L | > 64 mg/L | 1 to 16 mg/L (≈ 2.52 to 40.3 µM) | – | –
Nc1nnc(CN(Cc2ccc(S(N)(=O)=O)cc2)C(=O)CSc2ccccc2Cl)o1 [compound 47] | > 64 mg/L | 16 to 64 mg/L (≈ 34.2 to 137 µM) | < 1 mg/L | – | –
Cc1cnc(CN(Cc2ccc(C#N)cc2)C(=O)CSc2ccccc2Cl)o1 [compound 72] | > 64 mg/L | – | 1 to 16 mg/L (≈ 2.43 to 38.8 µM) | – | 0.1 to 1 µM
[2H]C([2H])(Oc1cc(F)cc(F)c1C([2H])([2H])C([2H])([2H])[2H])C(=O)N(Cc1nnc(N)o1)Cc1ccc([N+](=O)[O-])cc1F [compound 78] | 1 to 16 mg/L (≈ 2.12 to 33.9 µM) | – | – | 1 to 16 mg/L (≈ 2.12 to 33.9 µM) | < 0.02 µM
CCc1c(F)cc(F)cc1OCC(=O)N(Cc1ccc2c(c1)CC(=O)N2)Cc1nnc(N)o1 [compound 83] | > 64 mg/L | – | – | 16 to 64 mg/L (≈ 35 to 140 µM) | < 0.02 µM
Nc1nnc(CN(Cc2ccc([N+](=O)[O-])cc2)C(=O)COc2cc(F)cc(F)c2C2CC2)o1 [compound 84] | 16 to 64 mg/L (≈ 34.8 to 139 µM) | – | – | 1 to 16 mg/L (≈ 2.18 to 34.8 µM) | < 0.02 µM
Nc1nnc(CN(Cc2ccc([N+](=O)[O-])cc2F)C(=O)COc2cc(F)cc(F)c2C2CC2)o1 [compound 86] | 16 to 64 mg/L (≈ 33.5 to 134 µM) | – | – | 1 to 16 mg/L (≈ 2.09 to 33.5 µM) | < 0.02 µM
Nc1nnc(CN(Cc2ccc([N+](=O)[O-])nc2)C(=O)COc2cc(F)cc(F)c2C2CC2)o1 [compound 87] | > 64 mg/L | – | – | > 64 mg/L | 0.02 to 0.1 µM
[2H]C([2H])(Oc1ccccc1C([2H])([2H])C([2H])([2H])[2H])C(=O)N(Cc1ccc(C#N)nc1)Cc1nnc(N)o1 [compound 88] | > 64 mg/L | – | – | > 64 mg/L | 0.02 to 0.1 µM
Nc1nnc(CN(Cc2csc([N+](=O)[O-])c2)C(=O)COc2cc(F)cc(F)c2C2CC2)o1 [compound 89] | > 64 mg/L | – | – | > 64 mg/L | 0.02 to 0.1 µM
[2H]C([2H])(Oc1ccccc1C([2H])([2H])C([2H])([2H])[2H])C(=O)N(Cc1nnc(N)o1)Cc1ccc([N+](=O)[O-])cc1F [compound 92] | > 64 mg/L | – | – | 16 to 64 mg/L (≈ 36.7 to 147 µM) | 0.02 to 0.1 µM
[2H]C([2H])(Oc1ccccc1C([2H])([2H])C([2H])([2H])[2H])C(=O)N(Cc1ccc([N+](=O)[O-])cc1)Cc1nnc(N)o1 [compound 93] | > 64 mg/L | – | – | > 64 mg/L | 0.02 to 0.1 µM
CCc1c(F)cc(F)cc1OCC(=O)N(Cc1ccc([N+](=O)[O-])cc1)Cc1nnc(N)o1 [compound 95] | 16 to 64 mg/L (≈ 35.8 to 143 µM) | – | – | 1 to 16 mg/L (≈ 2.24 to 35.8 µM) | < 0.02 µM
N#Cc1ccc(CN(Cc2nnc(N)o2)C(=O)COc2cc(F)cc(F)c2Br)c(F)c1 [compound 96] | 16 to 64 mg/L (≈ 32.2 to 129 µM) | – | – | 1 to 16 mg/L (≈ 2.02 to 32.2 µM) | < 0.02 µM
N#Cc1ccc(CN(Cc2nnc(N)o2)C(=O)c2cc3cccc(Cl)c3s2)c(F)c1 [compound 97] | > 64 mg/L | – | – | > 64 mg/L | > 1 µM
N#Cc1ccc(CN(CC(=O)N2CCOC[C@@H]2CN)C(=O)CSc2cc(F)cc(F)c2Cl)c(F)c1 [compound 106] | > 64 mg/L | – | – | > 64 mg/L | > 1 µM
N#Cc1ccc(CN(CC(=O)N[C@@H](CN)C(=O)O)C(=O)CSc2cc(F)cc(F)c2Cl)c(F)c1 [compound 107] | > 64 mg/L | – | – | > 64 mg/L | 0.1 to 1 µM
CCc1cccc(OCC(=O)N(Cc2nnc(N)o2)Cc2ccc(C#N)cc2F)c1 [compound 110] | > 64 mg/L | – | – | > 64 mg/L | 0.1 to 1 µM
N#Cc1ccc(CN(Cc2nnc(O)o2)C(=O)CSc2cc(OCCN)ccc2Cl)c(F)c1 [compound 116] | > 64 mg/L | – | – | > 64 mg/L | > 1 µM
